# Results published in ChEMBL document CHEMBL4699447, “Initial Analysis of the Arylomycin D Antibiotics” (2020).
# Assays:
# Format in all cases: functional
# Yersinia pestis = test: Antimicrobial activity against Yersinia pestis KIM6+ assessed as reduction in microbial growth after 24 hrs by CLSI based broth microdilution method
# [1] = tested on: Staphylococcus epidermidis; test: Antimicrobial activity against Staphylococcus epidermidis RP62A assessed as reduction in microbial growth after 24 hrs by CLSI based broth microdilution method
# Escherichia coli [2] = test: Antimicrobial activity against Escherichia coli K-12 assessed as reduction in microbial growth after 24 hrs by CLSI based broth microdilution method
# Escherichia coli [3] = test: Antimicrobial activity against Escherichia coli IMP BAS901 assessed as reduction in microbial growth after 24 hrs by CLSI based broth microdilution method
# Staphylococcus aureus = test: Antimicrobial activity against methicillin-resistant Staphylococcus aureus USA300 assessed as reduction in microbial growth after 24 hrs by CLSI based broth microdilution method
Structure (SMILES),MIC (Yersinia pestis) [µg/mL],MIC [1] [µg/mL],MIC (Escherichia coli [2]) [µg/mL],MIC (Escherichia coli [3]) [µg/mL],MIC (Staphylococcus aureus) [µg/mL]
CCCCCCCCCCCCCCCC(=O)NCCC(=O)N[C@@H](CS(=O)(=O)O)C(=O)N(C)[C@@H]1C(=O)N[C@@H](C)C(=O)N[C@H](C(=O)O)Cc2ccc(O)c(c2)-c2cc1ccc2O,2,4,> 64,> 64,16
CCCCCCCCCCCCCCCC(=O)NCCC(=O)N[C@@H](CS(=O)(=O)O)C(=O)N(C)[C@@H]1C(=O)N[C@@H](C)C(=O)N[C@H](C(=O)O)Cc2ccc(OS(=O)(=O)O)c(c2)-c2cc1cc(OS(=O)(=O)O)c2O[C@@H]1O[C@@H](C)[C@H](O)[C@@H](O)[C@H]1O,> 64,> 64,,> 64,> 64
CCCCCCCCCCCCCCCC(=O)NCCC(=O)N[C@H](CS(=O)(=O)O)C(=O)N(C)[C@@H]1C(=O)N[C@@H](C)C(=O)N[C@H](C(=O)O)Cc2ccc(OS(=O)(=O)O)c(c2)-c2cc1cc(OS(=O)(=O)O)c2O[C@@H]1O[C@@H](C)[C@H](O)[C@@H](O)[C@H]1O,> 64,> 64,,> 64,> 64
CCCCCCCCCCCCCCCC(=O)N(C)[C@H](CO)C(=O)N[C@H](C)C(=O)NCC(=O)N(C)[C@@H]1C(=O)N[C@@H](C)C(=O)N[C@H](C(=O)O)Cc2ccc(OS(=O)(=O)O)c(c2)-c2cc1cc(OS(=O)(=O)O)c2O[C@@H]1O[C@@H](C)[C@H](O)[C@@H](O)[C@H]1O,> 64,> 64,,> 64,> 64
CCCCCCCCCCCCCCCC(=O)NCCC(=O)N[C@@H](CS(=O)(=O)O)C(=O)N(C)[C@@H]1C(=O)N[C@@H](C)C(=O)N[C@H](C(=O)O)Cc2ccc(O)c(c2)-c2cc1cc(O)c2O[C@@H]1O[C@@H](C)[C@H](O)[C@@H](O)[C@H]1O,4,8,> 64,64,32
CCCCCCCCCCCCCCCC(=O)N(C)[C@H](CO)C(=O)N[C@H](C)C(=O)NCC(=O)N(C)[C@@H]1C(=O)N[C@@H](C)C(=O)N[C@H](C(=O)O)Cc2ccc(O)c(c2)-c2cc1ccc2O [ARYLOMYCIN C16],,0.25,> 64,16,> 64
